Here are results for 2 molecules from patent publication US20240309090A1, “MODULATION OF ANDROGEN SIGNALING TO INNATE IMMUNE KILLING OF PROSTATE CANCER” (Brown University, priority 2023, published 2024).

Experiment [1] relates to PC cell lines (LNCap, 22Rv1, DU145, PC3). Put plainly: Co-cultures of PC cell lines with NK cells (1:1), immune-mediated PC killing. The experiment is classed as cell-based. The conditions noted are these: for immune-mediated PC killing effect: Example 2, PC with NK-92 cells and patient-derived NK cells, within 24 hrs. The method, then:
(§1) Prostate cancer cell lines were dyed with the blue CMAC live-cell dye (Thermo Fisher Scientific #C2110, per manufacturer protocol). Blue-fluorescent cancer cells were plated at a density of 10,000 cells per well of a 48-well plate. NK-92 cells were dyed with green CMFDA (Cayman Chemical Company #19583, per manufacturer protocol). Green-fluorescent NK-92 cells were added to the blue-fluorescent cancer cells at a 1:1 ratio. Enzalutamide (10 μM), darolutamide (20 μM), and 1 μM ethidium homodimer (EthD-1) were added at the same time as the NK cells. After 24 hours of co-culture, images of live cancer cells, live NK cells, and dead cells were taken using a fluorescent microscope. The co-culture experiments were run with internal control conditions and as a single treatment. Normalization was performed after analysis to take baseline death conditions into each experiment run. To optimize the high output of these experiments, a subset of co-cultures were performed using the ImageXpress® Micro Confocal High-Content Imaging. This analysis maintained the experiment conditions, drug concentrations, and the dyeing process. When GFP-labeled tumor cells were used for culture assays, they were added in a 1:1 ratio. Cell adhered over 24 h, and when patient-derived NK cells were added, a control well was trypsinized, and cells resuspended and counted to adjust a 1:1 ratio before treatment addition. The experiments with blocking antibodies were performed using the ImageXpress system. TRAIL blocking ab was purchased from Santa Cruz TRAIL Antibody (RIK-2): sc-56246, and IFN gamma blocking Monoclonal Antibody (NIB42, #6-7318-81) was purchased from Thermo Fisher. The blocking mAb was added when NK cells were combined with tumor cells.
Live cancer cells, NK cells, and dead cells were quantified using FIJI (Fiji Is Just ImageJ) software for images derived from fluorescent co-culture images. Images from the ImageXpress system were quantified using MetaXpress cytoplasmic/nuclear staining software. The percent of dead tumor cells in each well was quantified, and this percentage was normalized by subtracting baseline death from cancer cell-only wells, NK cell-only wells, or both. A two-way ANOVA was used to calculate the interaction effect between drug treatment and NK cells.
In groups with a significant interaction effect, data was further normalized in the cancer cell+NK cells+drug treatment well by subtracting out death in the cancer cell+drug well. A one-way ANOVA and multiple comparison analysis with subsequent t-tests were used to calculate the statistical significance of the difference between this group and the cancer cell+NK cell well. GraphPad Prism Version 9.5.1 was used for statistical analysis.
(§2) We conducted cell viability assays to investigate the effect of Enza and Daro on PC cells (LNCap, 22Rv1 [ARv7 mutation], DU145, PC3 [AR-]) and NK-92 cells. We performed co-culture experiments with PC and NK cells in a 1:1 ratio and analyzed immune cell-mediated tumor cell killing (ImageXpress Confocal HT). Cytokine profiling (Luminex 200) of culture supernatants was performed following treatment with ARi−/+ and anti-IFN-γ antibodies. In vivo studies were performed in NCr Nude mice harboring subcutaneous PC tumors treated orally with Daro (50 mg/kg/bid) and Enza (30 mg/kg/bid) for 4 weeks.
We performed ATP-based (CellTiter-Glo) viability assays to investigate the effect of Enzalutamide and Darolutamide on PC cell lines (LNCap, 22Rv1 [ARv7 mutation], DU145, PC3 [AR-]) and NK-92 cells. We performed co-culture experiments with PC and NK cells at a 1:1 ratio throughout 4 h, 6 h, 12 h, 24 h, and 48 h periods. We analyzed immune cell-mediated tumor cell killing in the presence of Enza and Darolutamide (ImageXpress Confocal HT). Western Blotting was performed to evaluate different protein expression levels and their regulation related to sensitivity in mediating immune-mediated cell killing (apoptotic family). […]

The test system of the next experiment is NK-92 cells. As to the kind of experiment: Cytokine secretion of NK-92 monoculture (Luminex 200). Type of experiment: cell-based. The following applies: for NK-92 secretion of T cell chemokine CCL5: FIG. 13A (A6); for NK-92 cell secretion of IFN-γ / NK-92 cell secretion of IL-10 / NK-92 cell secretion of granzyme B: monoculture, DHT for 72 h before treatment, supernatant. The method, then: The secretion profile was assessed in monoculture conditions without the PCa cell lines.
(§3) The medium was collected 24 hours after treatment and stored at −80° C. until readout. Samples were shipped to Brown University to run them in biological duplicate on a Luminex 200 Instrument (R&D LX200-XPON-RUO), which captures cytokines on magnetic antibody-coated beads and measures cytokine levels using a system based on the principles of flow cytometry (see https:/www.luminexcorp.com/luminex-100200/#overviewfor more information). A custom […] panel was split into 34-plex and 18-plex assays (R&D LXSAHM) and was run on the Luminex 200 instrument according to the manufacturer's protocol.

The test system of experiment [2] is PCa cell lines (PC3, LNCaP, 22Rv1, DU145). As to the kind of experiment: Cytokine profiling of prostate cancer cell culture supernatants (Luminex 200). The experiment is classed as cell-based. The conditions noted are these: for IFN-γ secretion: DU145, 22Rv1, and PC3 cell lines; for secretion of immune-activating cytokines such as IL-2 / secretion of pro-tumorigenic and immunosuppressive cytokines such as VEGF, M-CSF, IL-8, CXCL10 and GDF-15: PCa cell lines, 24 h. The method, then:
GDF-15 is implicated in the immunosuppressive prostate cancer TME and the progression of benign prostate hyperplasia to adenocarcinoma.
as §3, §2

For a further experiment, the system named is LNCaP. As to the kind of experiment: Co-culture of GFP-expressing LNCaP with patient-derived NK cells. The experiment is classed as cell-based, human. The conditions noted are these: GFP LNCaP, 1:1, 24 h; monalizumab in combination with enza and daro.
Source text: (§4) To validate an additive effect of ARi and monalizumab enhancing NK cell cytotoxicity, we performed a co-culture assay with GFP-labeled PCa cell lines (including ARi-sensitive LNCaP and ARi-resistant PC3) and patient-derived NK cells. The NK cells were negatively selected from whole blood from patients with metastatic prostate cancer before initiation of androgen deprivation therapy. The addition of enzalutamide or darolutamide enhanced the cytotoxicity of NK cells, and the combination of ARi with monalizumab potentiated immune killing (FIG. 15C-D).
as §1
(§5) NK cells were isolated from patients harboring metastatic castration-sensitive prostate cancer using the MojoSort™ Human NK Cell Isolation Kit (#480053). Patients signed informed consent for IRB-approved research protocol number 2055-13, allowing the collection of peripheral blood samples. […] The untouched NK cells (CD56+, CD3−) were collected, and the purity of isolation was determined by flow cytometry using anti-CD56 (BioLegend 362503). […]

For the next experiment, the system named is PC3. As to the kind of experiment: Co-culture of GFP-expressing PC3 with patient-derived NK cells. The experiment is classed as cell-based, human. The conditions noted are these: GFP PC3, 1:1, 24 h; monalizumab in combination with enza and daro.
Source text: as §4, §1, §5

Where [3] appears, read: Example 1, PC + NK-92, within 24 hours.
Where [4] appears, read: Example 2, PC + NK-92, within 24 hours, blocking mAbs 10 ug/ml.

On to `CC(O)c1cc(C(=O)N[C@@H](C)Cn2ccc(-c3ccc(C#N)c(Cl)c3)n2)n[nH]1` (stereo partly drawn) [darolutamide], for which, in experiment [1] (setting [3]), the “immune-mediated PC killing” value was determined as 41%. Also, the “immune-mediated PC killing” value in experiment [1] (setting [4]) is given as 36%. Also, in experiment [1], the “immune-mediated PC killing effect” value is listed as 36%. Further, in the experiment with NK-92 cells, the “NK-92 secretion of T cell chemokine CCL5” value was “reduces”, the “NK-92 cell secretion of IFN-γ” value was determined as 45.6 pg/mL, the “NK-92 cell secretion of IL-10” value was 15.24 pg/mL and the “NK-92 cell secretion of granzyme B” value was found to be 1599 pg/mL. In experiment [2], the IFN-γ secretion result was “upregulation”; the “secretion of immune-activating cytokines such as IL-2” value was “increased”; the “secretion of pro-tumorigenic and immunosuppressive cytokines such as VEGF, M-CSF, IL-8, CXCL10 and GDF-15” value was “reduced”. Further, the “killing of PCa cells by patient-derived NK cells (in words)” value (“killing of PCa cells” below) in the experiment with LNCaP is “enhanced”. In the experiment on PC3, the “killing of PCa cells” value is listed as “enhanced”.

With `CNC(=O)c1ccc(N2C(=S)N(c3ccc(C#N)c(C(F)(F)F)c3)C(=O)C2(C)C)cc1F` [enzalutamide], the “immune-mediated PC killing” value in experiment [1] (setting [3]) came to 36%. For the same molecule, the “immune-mediated PC killing” value in experiment [1] (setting [4]) came out at 40%. Also, in experiment [1], the “immune-mediated PC killing effect” value came to 40%. For the same molecule, in the experiment on NK-92 cells, the “NK-92 secretion of T cell chemokine CCL5” value is “reduces”, the “NK-92 cell secretion of IFN-γ” value came to 48.88 pg/mL, the “NK-92 cell secretion of IL-10” value amounted to 16.6 pg/mL and the “NK-92 cell secretion of granzyme B” value was determined as 1027 pg/mL. Also, in experiment [2], the IFN-γ secretion entry was “upregulation”; the “secretion of immune-activating cytokines such as IL-2” value is “increased”; the “secretion of pro-tumorigenic and immunosuppressive cytokines such as VEGF, M-CSF, IL-8, CXCL10 and GDF-15” value is “reduced”. Moreover, in the experiment with LNCaP, the “killing of PCa cells” value is reported as “enhanced”. Besides, in the experiment with PC3, the “killing of PCa cells” value is “enhanced”.
